These are literature values, as cited in patent US20050267212A1, “Omega-3 fatty acids in the treatment of depression” (priority 1997, published 2005).

The data set addresses T1, cyclooxygenase-2 (Homo sapiens, UniProt P35354).
T1 sequence (P35354 18-604): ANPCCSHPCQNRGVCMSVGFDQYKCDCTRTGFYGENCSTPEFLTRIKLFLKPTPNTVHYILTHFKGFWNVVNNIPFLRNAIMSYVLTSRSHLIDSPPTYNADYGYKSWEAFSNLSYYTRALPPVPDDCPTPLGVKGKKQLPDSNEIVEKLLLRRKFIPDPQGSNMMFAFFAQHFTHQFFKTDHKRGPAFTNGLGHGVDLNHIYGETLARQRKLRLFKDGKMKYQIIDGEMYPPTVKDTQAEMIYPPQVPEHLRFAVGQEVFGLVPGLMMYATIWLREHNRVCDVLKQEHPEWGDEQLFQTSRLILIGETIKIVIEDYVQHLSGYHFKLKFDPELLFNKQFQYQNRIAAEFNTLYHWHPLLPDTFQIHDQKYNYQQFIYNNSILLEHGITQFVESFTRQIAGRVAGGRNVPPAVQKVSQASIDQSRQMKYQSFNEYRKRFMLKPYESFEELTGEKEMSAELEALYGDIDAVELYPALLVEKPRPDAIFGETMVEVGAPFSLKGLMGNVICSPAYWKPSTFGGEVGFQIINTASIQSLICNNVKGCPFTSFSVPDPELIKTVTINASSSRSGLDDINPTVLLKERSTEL
Particulars: cultured human mast cells.

`CC/C=C\C/C=C\C/C=C\C/C=C\C/C=C\CCCC(=O)O` [EPA, eicosapentanoic acid]: the “effect on cyclooxygenase-2” value is on record as “direct inhibition”.
